Holding throughout (format): cell-based
In test [1] the test system is Wnt activity (Sp5-Luc reporter, TCF/LEF binding sites) in SW480 colon carcinoma cells. The test can be described thus: Screening assay for Wnt activity: Sp5-Luc reporter gene assay in stably transduced SW480 cells. As to conditions: Homo sapiens, overnight incubation. The text has this: The screening assay for Wnt activity is described as follows. Reporter cell lines can be generated by stably transducing cancer cell lines (e.g., colon cancer) or primary cells (e.g., IEC-6 intestinal cells) with a lentiviral construct that includes a Wnt-responsive promoter driving expression of the firefly luciferase gene.
SW480 colon carcinoma cells were transduced with a lentiviral vector expressing luciferase with a human Sp5 promoter consisting of a sequence of eight TCF/LEF binding sites. SW480 cells stably expressing the Sp5-Luc reporter gene and a hygromycin resistance gene were selected by treatment with 150 μg/mL of hygromycin for 7 days. These stably transduced SW480 cells were expanded in cell culture and used for all further screening activities. Each compound was dissolved in DMSO as a 10 mM stock and used to prepare compound source plates. Serial dilution (1:3, 10-point dose-response curves starting from 10 μM) and compound transfer was performed using the ECHO 550 (Labcyte, Sunnyvale, Calif.) into 384-well white solid bottom assay plates (Greiner Bio-One) with appropriate DMSO backfill for a final DMSO concentration of 0.1%. For Sp5-Luc reporter gene assays, the cells were plated at 4,000 cells/well in 384-well plates with medium containing 1% fetal bovine serum and incubated overnight at 37° C. and 5% CO2. Following incubation, 20 μl of BrightGlo luminescence reagent (Promega) was added to each well of the 384-well assay plates. The plates were placed on an orbital shaker for 2 min and then luminescence was quantified using the Envision (Perkin Elmer) plate reader. Readings were normalized to DMSO only treated cells, and normalized activities were utilized for EC50 calculations using the dose-response log (inhibitor) vs. response-variable slope (four parameters) nonlinear regression feature available in GraphPad Prism 5.0 (or Dotmatics). For EC50 of >10 μM, the percent inhibition at 10 μM is provided.

In a further test the test system is SW480 colon cancer cells. Briefly: Cell viability assay (CellTiter-Blue) in SW480 colon cancer cells. The following applies: Homo sapiens, 96 h, four days, CellTiter-Blue. The method, then: Representative compounds were screened using the following assay procedure to assess the effect on cell viability as described below.
Each compound was dissolved in DMSO as a 10 mM stock and used to prepare compound source plates. Serial dilution (1:3, 8-point dose-response curves from 10 μM to 0.0045 μM) and compound transfer was performed using the ECHO 550 (Labcyte, Sunnyvale, Calif.) into 96-well clear bottom, black-walled plates (Corning-Costar).
Approximately 2×10^3 SW480 colon cancer cells were seeded into each well and allowed to incubate in the presence or absence of compound for four days at 37° C./5% CO2. Eight replicates of DMSO-treated cells served as controls and cells treated with compound were performed in duplicate.
After incubation, 20 μL of CellTiter-Blue (Promega) was added to each well allowed to incubate for approximately 3 hours. This reagent was a buffered solution which contains resazurin, metabolically active cells were able to reduce rezarurin (blue) into resorufin (pink) which was highly fluorescent. This measured fluorescence was used as a readout for cell viability.
After incubation, the plates were read at Ex 560 nm Em 590 nm (Cytation 3, BioTek). Dose-response curves were generated and EC50 concentration values were calculated using non-linear regression curve fit in the GraphPad Prism (San Diego, Calif.) or Dotmatics' Studies Software (Bishops Stortford, UK). For EC50 of >10 μM, the percent inhibition at 10 μM is provided.

Test [2] deals with primary human fibroblasts derived from IPF patients (LL29 cells) treated with TGF-β1; α-smooth muscle actin (αSMA). The test can be described thus: Inhibition of the fibrotic process: αSMA staining in TGF-β1 treated primary human fibroblasts from IPF patients (LL29 cells). As to conditions: Fibroblast, 96 h, TGF-β1 20 ng/mL, 4 days, % cells positive for αSMA. An excerpt: Representative compounds were screened using primary human fibroblasts (derived from IPF patients) treated with TGF-β1 to determine their ability to inhibit the fibrotic process.
Primary human fibroblasts derived from IPF patients (LL29 cells) [^1Xiaoqiu Liu, et. al., “Fibrotic Lung Fibroblasts Show Blunted Inhibition by cAMP Due to Deficient cAMP Response Element-Binding Protein Phosphorylation”, Journal of Pharmacology and Experimental Therapeutics (2005), 315(2), 678-687; ^2Watts, K. L., et. al., “RhoA signaling modulates cyclin D1 expression in human lung fibroblasts; implications for idiopathic pulmonary fibrosis”, Respiratory Research (2006), 7(1), 88] were obtained from American Type Culture Collection (ATCC) and expanded in F12 medium supplemented with 15% Fetal Bovine Serum and Penicillin/Streptomycin.
Each compound was dissolved in DMSO as a 10 mM stock and used to prepare compound source plates. Serial dilution (1:2, 11-point dose-response curves from 10 μM to 1.87 nM) and compound transfer was performed using the ECHO 550 (Labcyte, Sunnyvale, Calif.) into 384-well clear bottom assay plates (Greiner Bio-One) with appropriate DMSO backfill for a final DMSO concentration of 0.1%. LL29 cells are plated at 1,500 cells/well in 80 μL/well F12 medium supplemented with 1% Fetal Bovine Serum. One hour after addition of the cells, TGF-β1 (Peprotech; 20 ng/mL) was added to the plates to induce fibrosis (ref. 1 and 2 above). Wells treated with TGF-β1 and containing DMSO were used as controls. Cells were incubated at 37° C. and 5% CO2 for 4 days. Following incubation for 4 days, SYTOX green nucleic acid stain (Life Technologies [Thermo Fisher Scientific]) was added to the wells at a final concentration of 1 μM and incubated at room temperature for 30 min. Cells were then fixed using 4% formaldehyde (Electron Microscopy Sciences), washed 3 times with PBS followed by blocking and permeabilization using 3% Bovine Serum Albumin (BSA; Sigma) and 0.3% Triton X-100 (Sigma) in PBS. Cells were then stained with antibody specific to α-smooth muscle actin (αSMA; Abcam) (ref. 1 and 2 above) in 3% Bovine Serum Albumin (BSA; Sigma) and 0.3% Triton X-100 (Sigma) in PBS, and incubated overnight at 4° C. Cells were then washed 3 times with PBS, followed by incubation with Alexa Flor-647 conjugated secondary antibody (Life Technologies [Thermo Fisher Scientific]) and DAPI at room temperature for 1 hour. Cells were then washed 3 times with PBS and plates were sealed for imaging. αSMA staining was imaged by excitation at 630 nm and emission at 665 nm and quantified using the Compartmental Analysis program on the CellInsight CX5 (Thermo Scientific). Dead or apoptotic cells were excluded from analysis based on positive SYTOX green staining. % of total cells positive for αSMA were counted in each well and normalized to the average of 11 wells treated with TGF-β1 on the same plate using Dotmatics' Studies Software. The normalized averages (fold change over untreated) of 3 replicate wells for each compound concentration were used to create dose-responses curves and EC50 values were calculated using non-linear regression curve fit in the Dotmatics' Studies Software. For EC50 of >10 μM, the percent inhibition at 10 μM is provided.

For the next test, the system named is IL-6 (THP-1 cells). The test can be described thus: Inhibition of IL-6 in LPS-stimulated THP-1 human monocyte cells (HTRF). The following applies: inhibition of IL-6 in LPS-stimulated THP-1 cells, HTRF, 10-point dose-response starting from 10 μM. The method, then:
Human monocyte cell line (THP-1 cells; Catalog # TIB-202, ATCC, Manassas, Va.) were cultured in Roswell Park Memorial Institute (RPMI) 1640 Medium (Catalog #21870-100, Buffalo, N.Y.) with 1% L-glutamine, 1% HEPES, 1% Sodium Pyruvate, 2% Sodium Bicarbonate supplemented with 100 units/mL penicillin, 50 μg/mL streptomycin, 2-mercaptoethanol (0.05 mM) [basal medium] and 10% fetal bovine serum (Catalog #16140089, Life Technologies, Carlsbad, Calif.) at 37° C. and 5% CO2.
THP-1 cells were cultured in basal media with 1% FBS for 24 hours before the start of the assay. Each compound was dissolved in DMSO as a 10 mM stock and used to prepare compound source plates. Serial dilution (1:3, 10-point dose-response curves starting from 10 μM) and compound transfer was performed using the ECHO 550 (Labcyte, Sunnyvale, Calif.) into 384-well white low volume assay plates (Greiner Bio-One) with appropriate DMSO backfill for a final DMSO concentration of 0.1%. THP-1 cells were plated at 5000 cells/well in the 384-well plates and incubated at 37° C. for 2 h. 500 ng/mL of LPS was added after 2 hours and cells were incubated for another 22 hours at 37° C. Plates were spun in a centrifuge for 1 minute at […] and a mixture of anti-IL6 XL665, and anti-IL6 Cryptate diluted in reconstitution buffer (Cisbio Inc.) was added to each well. Following incubation for 3 hrs at room temperature, Homogeneous Time-Resolved Fluorescence (HTRF) was measured using the Envision (Perkin Elmer) at 665 nm and […]. The ratio of fluorescence at 665 nm to 620 nm was used as a readout for IL6 quantification. All samples were processed in duplicate. Readings were normalized to DMSO treated cells and normalized activities were utilized for EC50 calculations using the dose-response log (inhibitor) vs. response-variable slope (four parameters) nonlinear regression feature available in GraphPad Prism 5.0 (or Dotmatics). For EC50 of >10 μM, the percent inhibition at 10 μM is provided.

In patent publication US10166218B2, “3-(1H-indol-2-yl)-1H-pyrazolo[3,4-C]pyridines and therapeutic uses thereof” (Samumed, LLC, priority 2015, dated 2019) one finds EC50 data, which are given here for 9 compounds.

Molecules are shown by their SMILES.

As to `CCC(=O)Nc1cncc(-c2cc3c(-c4cc5c(-c6cccc(F)c6)cccc5[nH]4)n[nH]c3cn2)c1` [Compound 1, N-(5-(3-(4-(3-Fluorophenyl)-1H-indol-2-yl)-1H-pyrazolo[3,4-c]pyridin-5-yl)pyridin-3-yl)propionamide], the concentration giving a half-maximal response (EC50) in test [1] was 570 nM; in the test with SW480 colon cancer cells, 4070 nM; in test [2] it was 529 nM; in the test on IL-6 (THP-1 cells), 2920 nM.

As to `CN(C)Cc1cncc(-c2cc3c(-c4cc5c(-c6cccc(F)c6)cccc5[nH]4)n[nH]c3cn2)c1` [Compound 13, 1-(5-(3-(4-(3-Fluorophenyl)-1H-indol-2-yl)-1H-pyrazolo[3,4-c]pyridin-5-yl)pyridin-3-yl)-N,N-dimethylmethanamine], the EC50 amounted to 1350 nM in test [1], 4930 nM in the test with SW480 colon cancer cells, 2200 nM in test [2] and 7520 nM with IL-6 (THP-1 cells).

In the case of `CC(C)(C)CC(=O)Nc1cncc(-c2cc3c(-c4cc5c(-c6cccc(F)c6)cccc5[nH]4)n[nH]c3cn2)c1` [Compound 16, N-(5-(3-(4-(3-Fluorophenyl)-1H-indol-2-yl)-1H-pyrazolo[3,4-c]pyridin-5-yl)pyridin-3-yl)-3,3-dimethylbutanamide], the EC50 came to 1970 nM in test [1], 3920 nM in the test with SW480 colon cancer cells, 640 nM in test [2] and 1870 nM in the test with IL-6 (THP-1 cells).

Take `Fc1cccc(-c2cccc3[nH]c(-c4n[nH]c5cnc(-c6cncc(CN7CCC(F)(F)C7)c6)cc45)cc23)c1` [Compound 26, 5-(5-((3,3-Difluoropyrrolidin-1-yl)methyl)pyridin-3-yl)-3-(4-(3-fluorophenyl)-1H-indol-2-yl)-1H-pyrazolo[3,4-c]pyridine]: the EC50 in test [1] turned out to be 1030 nM; with SW480 colon cancer cells it was 3950 nM; in test [2], 92 nM; with IL-6 (THP-1 cells), 3090 nM.

As for `Fc1cccc(-c2cccc3[nH]c(-c4n[nH]c5cnc(-c6ccccn6)cc45)cc23)c1` [Compound 28, 3-(4-(3-Fluorophenyl)-1H-indol-2-yl)-5-(pyridin-2-yl)-1H-pyrazolo[3,4-c]pyridine], the EC50 in test [1] is 2240 nM; in the test with SW480 colon cancer cells, 3530 nM; in test [2] it was 1180 nM; with IL-6 (THP-1 cells), 3600 nM.

Turning to `CC(C)(C)C(=O)Nc1cncc(-c2cc3c(-c4cc5c(-c6ccc(F)cc6)cccc5[nH]4)n[nH]c3cn2)c1` [Compound 36, N-(5-(3-(4-(4-Fluorophenyl)-1H-indol-2-yl)-1H-pyrazolo[3,4-c]pyridin-5-yl)pyridin-3-yl)pivalamide], the EC50 in test [1] came to 872 nM; in the test with SW480 colon cancer cells it was 5960 nM; in test [2], 1010 nM; in the test on IL-6 (THP-1 cells) it was 1630 nM.

Turning to `Fc1ccccc1-c1cccc2[nH]c(-c3n[nH]c4cnc(-c5cccnc5)cc34)cc12` [Compound 60, 3-(4-(2-Fluorophenyl)-1H-indol-2-yl)-5-(pyridin-3-yl)-1H-pyrazolo[3,4-c]pyridine], the half-maximal effective concentration (EC50) was found to be 740 nM in test [1], 909 nM in the test with SW480 colon cancer cells, 90 nM in test [2] and 2570 nM in the test with IL-6 (THP-1 cells).

For the compound `CC(C)Nc1cncc(-c2cc3c(-c4cc5c(-c6ccccc6F)cccc5[nH]4)n[nH]c3cn2)c1` [Compound 68, 5-(3-(4-(2-Fluorophenyl)-1H-indol-2-yl)-1H-pyrazolo[3,4-c]pyridin-5-yl)-N-isopropylpyridin-3-amine], the EC50 worked out at 494 nM in test [1], 1610 nM with SW480 colon cancer cells, 215 nM in test [2] and 3100 nM in the test on IL-6 (THP-1 cells).

As for `CC(C)(C)CC(=O)Nc1cncc(-c2cc3c(-c4cc5c(-c6ccccc6F)cccc5[nH]4)n[nH]c3cn2)c1` [Compound 72, N-(5-(3-(4-(2-Fluorophenyl)-1H-indol-2-yl)-1H-pyrazolo[3,4-c]pyridin-5-yl)pyridin-3-yl)-3,3-dimethylbutanamide], the EC50 in test [1] is 1700 nM; with SW480 colon cancer cells, 4430 nM; in test [2], 701 nM; in the test with IL-6 (THP-1 cells), 3210 nM.
